{"source": "patent US20050154046A1", "about": "“Methods of treating an inflammatory-related disease” (priority 2004, published 2005)", "key": {"TNF-α mRNA": {"system": "TNF-α mRNA", "experiment": "TNF-α transcription (real time PCR) in LPS-stimulated THP-1 cells", "assay_type": "cell-based, human", "conditions": "4 μM, 24 h", "method": "The effect of Meisoindigo on the transcription of TNF-α (RNA levels) was determined by a technique of real time PCR using the same procedures described in Example 2, except the specific primers for TNF-α were used as follows: 5′-[…], and 5′[…]. Total RNA was extracted using a Qiagen Rneasy minit kit, and the HPRT gene was used as internal control.\nHuman monocytic THP-1 cells grown exponentially were exposed to […] of LPS, 4 μM of Meisoindigo, or 1 μg/ml of LPS plus 4 μM of Meisoindigo for 24 hours. The cells were then harvested, washed and total RNA extracted for real time PCR assay as described in Example 2."}, "IL-10": {"system": "IL-10", "experiment": "IL-10 secretion (ELISA) in THP-1 cells", "assay_type": "cell-based, human", "description": "Viability of cells was examined by trypan blue exception assay."}, "IL-6 mRNA": {"system": "IL-6 mRNA", "experiment": "IL-6 transcription (real time PCR) in LPS-stimulated THP-1 cells", "assay_type": "cell-based, human", "conditions": "1 μM, 1 μg/ml LPS, 24 h", "method": "Real Time PCR: The effect of Meisoindigo on the transcription of IL-6 (RNA levels) was determined by a technique of real time polymerase chain reaction (real time PCR). Total RNA was extracted using a Qiagen […] the HPRT gene was used as internal control. Human monocytic THP-1 cells at exponential growth phase were exposed to 1 μg/ml of LPS, 1 μM of Meisoindigo, or 1 μg/ml of LPS plus 1 μM of Meisoindigo for 24 hours. The cells were then harvested, washed and total RNA extracted for real time PCR assay. Total RNA (300 ng) was treated with DNase I (Promega, Madison, Wis.), and SuperScript II (Invitrogen, Carlsbad, Calif.) and oligo(dT) were used for reverse transcription according to the manufacturers' instructions. Real-time PCR reactions were performed in a 25-μL volume containing diluted cDNA, Sybr Green PCR Master Mix (Applied Biosystems), and 2.5 μM each IL-6 gene-specific primer: […] and […] An ABI SDS7700 analyzer (Applied Biosystems) was used at 50° C. for 2 minutes and 95° C. for 10 minutes, followed by 40 cycles at 95° C. for 15 seconds and 60° C. for 1 minute. Test cDNA results were normalized to HPRT internal control measured on the same plate. After cycling, the specificity of amplification was validated by the generation of a melting curve through slow denaturation of the PCR products and then by gel electrophoresis."}, "[1]": {"system": "idiopathic inflammatory bowel disease", "assay_type": "in vivo, human", "method": "The first diagnosis was performed at North Shore University Hospital Manhasset, Long Island, N.Y. in 1999 by colonoscope. Major symptoms included diarrhea, loose stool and bleeding while their overall condition of health was considered excellent. Clinical-activity index (Table 5) (113) was determined to be between 7 and 8. Their physician prescribed hydrocortisone foam, which they administered for 10 days according to doctor's instructions. […] In early 2002, they went to a well-known and respected Chinese Medical Hospital in Beijing where Flexible Sigmoidoscopy was performed. Again, they were diagnosed as having active inflammatory bowel disease.\nAt this time, as previous treatments had no effect, their physician prescribed several traditional Chinese medicines. They administered these for several months, yet no improvement of their symptoms resulted. During the period of February 2000 to the summer of 2002, they also tried various other traditional Chinese medicines due to the continued and very troublesome nature of their disease, but nothing was successful. Upon returning to the United States in 2002, they went to the Mount Sinai Medical Center, a nationally recognized American center for the treatment of inflammatory bowel disease. In October 2002, their new physician again performed a colonoscope, together with a histological examination of two biopsy samples (A and B) (FIG. 8, panel A, before the treatment).\nThese included skin itch, abdominal cramping, pain and bleeding. They then asked their physician for advice and was instructed to use this medication on an intermittently. However, the side effects continued actually worsened each time the medication was used. They then halted all application of this medication.\nThe patient voluntarily administered Meisoindigo at a recommended dose of 25 mg, once a day for a scheduled three weeks of treatment. […] After nine weeks of remission (three weeks on the medicine, three weeks off of the medicine, and three weeks on the medicine again), the patient again visited their physician and requested a Flexible Sigmoidoscopy to determine if their remission was subjective or objective. The Flexible Sigmoidoscopy was performed on Nov. 4, 2003. After reviewing the results their physician concluded that their inflammation completely arrested."}, "TNF-α": {"system": "TNF-α", "experiment": "TNF-α secretion (ELISA) in LPS-stimulated THP-1 cells", "assay_type": "cell-based, human", "method": "Methods: The cells were stimulated with or without […] of lipopolysaccharide (LPS, Sigma), and exposed for 24 hours to different concentrations of Meisoindigo (from 31.25 nM to 16,000 nM). Viability of cells was examined under microscope after trypan blue staining. Protein levels of IL-1β secreted into the culture media by the cells were then measured by ELISA and calculated from its standard curve using an assay Kit from R&D Systems according to instructions provided by the supplier. The method was established and validated by a good standard curve obtained. An example of the standard curve is shown in FIG. 2, panel A. The representative derivative Meisoindigo was used. The cell line and the procedure of ELISA to measure secretion of TNF-α were the same as described in Example 1, except the standard TNF-α protein was used to establish a standard curve for the calculation of the protein secreted in the medium by the cells (LPS-stimulated or non-stimulated cells in the presence or absence of Meisoindigo)."}, "[2]": {"conditions": "25 mg once a day, before treatment 0"}, "[3]": {"conditions": "25 mg once a day, before treatment 1"}, "[4]": {"conditions": "25 mg once a day, before treatment 2"}}, "note": "Entries after “also recorded” stand apart in the source; their conditions may differ.", "data": [{"molecule": "CN1C(=O)/C(=C2/C(=O)Nc3ccccc32)c2ccccc21", "note": "[Meisoindigo]", "values": [{"measurement": "effect on TNF-α mRNA levels / transcription", "setting": "TNF-α mRNA", "result": "No effect"}, {"measurement": "increase in the IL-10 secretion", "setting": "IL-10; 0.0625 μM, THP-1 cells", "result": "Approximately 60%"}, {"measurement": "increase of IL-10 secretion at maximal stimulation", "setting": "IL-10; 62.5 nM, LPS-treated THP-1 cells, 24 h", "result": "approximately 2 fold"}, {"measurement": "effect on IL-10 production", "setting": "IL-10; 31.25 and 62.5 nM, 24 h", "result": "promoted production"}, {"measurement": "IL-10 (Stimulation), Percentage of Maximal Response Without Cytotoxicity", "setting": "IL-10; LPS-stimulated THP-1 cells, LPS alone −18.27", "result": "201.97 ± 11.2", "unit": "%"}, {"measurement": "elevation of LPS-suppressed IL-10", "setting": "IL-10; similar concentrations (as low as 31.25 nM), FIG. 6A", "result": "~2", "unit": "fold"}, {"measurement": "LPS-induced IL-6 transcription", "setting": "IL-6 mRNA", "result": "completely suppressed; also recorded: significantly inhibits"}, {"measurement": "clinical response", "setting": "[1]; 25 mg once a day, after the first three doses", "result": "complete remission"}, {"measurement": "Patient Score After Treatment: Abdominal tenderness", "setting": "[1]; [2]", "result": 0}, {"measurement": "Patient Score After Treatment: Nocturnal diarrhea", "setting": "[1]; [2]", "result": 0}, {"measurement": "Patient Score After Treatment: Abdominal pain or cramping", "setting": "[1]; [3]", "result": 0}, {"measurement": "Patient Score After Treatment: Fecal incontinence", "setting": "[1]; [3]", "result": 0}, {"measurement": "Patient Score After Treatment: Need for antidiarrhea drugs", "setting": "[1]; [3]", "result": 0}, {"measurement": "Patient Score After Treatment: Diarrhea (No. of daily stools)", "setting": "[1]; [4]", "result": 0}, {"measurement": "Patient Score After Treatment: General well-being", "setting": "[1]; [4]", "result": 0}, {"measurement": "Patient Score After Treatment: Visible blood in stool (% of movements)", "setting": "[1]; [4]", "result": 0}, {"measurement": "Flexible Sigmoidoscopy / pathological examination after treatment", "setting": "[1]; after nine weeks of remission (three weeks on, three off, three on)", "result": "inactive chronic protocolitis suggestive of idiopathic inflammatory bowel disease"}, {"measurement": "total amount of drug needed to obtain a complete cure of the inflammatory bowel disease", "setting": "[1]; human, in vivo", "result": 525, "unit": "mg"}, {"measurement": "reduction of TNF-α secretion", "setting": "TNF-α; 2.0 μM, 24 h", "result": "Approximately 50%"}, {"measurement": "inhibition of TNF-α secretion", "setting": "TNF-α; 16 μM", "result": "complete inhibition"}, {"measurement": "effect on TNF-α secretion over the concentration series", "setting": "TNF-α; 0.031 to 16 μM, 24 h", "result": "effectively inhibited; also recorded: concentration-dependent inhibition"}, {"measurement": "TNF-α (Inhibition), Percentage of Maximal Response Without Cytotoxicity", "setting": "TNF-α; LPS-stimulated THP-1 cells, LPS alone 100.00", "result": "49.20 ± 3.37", "unit": "%"}, {"measurement": "further reduction of TNF-α secretion on increasing the concentration", "setting": "TNF-α; up to 8 μM", "result": "did not cause further reduction"}]}]}
